Where a SMILES comes first, the peptide text is derived from it. Bridges are numbered along the chain shown (N, C = ends).
Target: T1, recombinant human VEGF165 (Homo sapiens, UniProt P15692)
T1 sequence (P15692 27-191 isoform P15692-4): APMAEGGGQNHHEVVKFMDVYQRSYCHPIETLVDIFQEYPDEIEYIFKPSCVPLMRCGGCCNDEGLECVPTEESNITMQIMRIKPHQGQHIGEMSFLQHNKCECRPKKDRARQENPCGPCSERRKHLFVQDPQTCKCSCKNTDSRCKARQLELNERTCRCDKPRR
Assay: VEGF peptide binding assay (competition ELISA, VEGF165 binding to coated VEGFR2/Fc)
Method: High-binding half-well 96-well plates (Costar #3690) were coated with recombinant human VEGFR2/Fc (50 ng/well) in 50 μl PBS, and incubated at 4° C. overnight. After washing the plates three times with 1× washing buffer (KPL Cat#50-65-00) and blocking with Superblock (Scytek #AAA500) at room temperature (RT) for 1 hour, VEGF-peptides of the invention were serially diluted (concentrations: 0.128-10,000 nM) in the presence of 25 ng/ml of recombinant human VEGF165 in […] Superblock, and were then added to the 96-well plates and incubated at RT for 1 hour. Peptides of the invention tested in this fashion were all capped at the amino terminus with a C(O)CH3 group and at the carboxyl terminus with a NH2 group. The plates were then washed three times with washing buffer, and a diluted (1:500) biotinylated anti-human VEGF antibody (R&D systems, Cat# BAF293) was added and incubated at RT for 2 hours. After washing the plates, streptavidin HRP conjugate (1:200 in Superblock) (R&D systems, Cat# DY998) was added to detect the bound anti-VEGF antibody, followed by addition of tetramethylbenzidine (TMB) substrate (Pierce, Cat#34021) for color development. The reaction was stopped with 2 M H2SO4. OD450 was measured using SpectraMax (Molecular Device) with a correction wavelength of 540 nm. The data were analyzed using Prism software. OD450 values were plotted as a function of the concentrations of the VEGF peptides. IC50 values, indicative of the potency of the VEGF peptides to inhibit VEGF-VEGFR2 interaction, were obtained using a sigmoid dose-response curve fit in Prism.

SMILES | IC50 [nM]
CC[C@H](C)[C@@H]1NC(=O)[C@H](CC(=O)O)NC(=O)[C@@H](NC(=O)[C@H](CC(N)=O)NC(=O)[C@@H]2CCCN2C(=O)[C@H](CCC(=O)O)NC(=O)[C@@H](NC(C)=O)C(C)C)CSSC[C@@H](C(=O)N[C@@H](Cc2ccccc2)C(=O)N[C@@H](CCC(=O)O)C(=O)N[C@@H](CCCNC(=N)N)C(=O)N[C@@H](CC(C)C)C(N)=O)NC(=O)[C@H](CCC(=O)O)NC(=O)[C@H](Cc2c[nH]c3ccccc23)NC(=O)[C@H](CCC(=O)O)NC(=O)[C@H](Cc2c[nH]c3ccccc23)NC(=O)[C@H](CCSC)NC(=O)[C@H](C(C)C)NC(=O)[C@H](Cc2c[nH]cn2)NC1=O [Compound 34, V-E-P-N-C-D-I-H-V-M-W-E-W-E-C-F-E-R-L] (Ac-VEPNCDIHVMWEWECFERL-NH2; disulfide 5-15 (inferred)) | 188
CC[C@H](C)[C@@H]1NC(=O)[C@H](CC(=O)O)NC(=O)[C@@H](NC(=O)[C@H](CC(N)=O)NC(=O)[C@@H]2CCCN2C(=O)[C@H](CCC(=O)O)NC(=O)[C@@H](NC(C)=O)C(C)C)CSSC[C@@H](C(=O)N[C@@H](Cc2ccccc2)C(=O)N[C@@H](CCC(=O)O)C(=O)N[C@@H](CCCNC(=N)N)C(=O)N[C@@H](CC(C)C)C(=O)N[C@@H](Cc2ccc(O)cc2)C(=O)NCC(=O)NCC(=O)N[C@@H](Cc2c[nH]c3ccccc23)C(N)=O)NC(=O)[C@H](CCC(=O)O)NC(=O)[C@H](Cc2c[nH]c3ccccc23)NC(=O)[C@H](C(C)C)NC(=O)[C@H](Cc2c[nH]c3ccccc23)NC(=O)[C@H](CCSC)NC(=O)[C@H](C(C)C)NC(=O)[C@H](Cc2c[nH]cn2)NC1=O [Compound 35, VEPNCDIHVMWVWECFERLYGGW] (Ac-VEPNCDIHVMWVWECFERLYGGW-NH2; disulfide 5-15 (inferred)) | 325
CC[C@H](C)[C@@H]1NC(=O)[C@H](CC(=O)O)NC(=O)[C@@H](NC(=O)[C@H](CC(N)=O)NC(=O)[C@@H]2CCCN2C(=O)[C@H](CCC(=O)O)NC(=O)[C@@H](NC(C)=O)C(C)C)CSSC[C@@H](C(=O)N[C@@H](Cc2ccccc2)C(=O)N[C@@H](CCC(=O)O)C(=O)N[C@@H](CCCNC(=N)N)C(=O)N[C@@H](CC(C)C)C(=O)N[C@@H](Cc2ccccc2)C(=O)N[C@@H](CCCNC(=N)N)C(=O)N[C@@H](CCC(=O)O)C(=O)N[C@@H](C)C(N)=O)NC(=O)[C@H](C(C)C)NC(=O)[C@H](Cc2c[nH]c3ccccc23)NC(=O)[C@H](C(C)C)NC(=O)[C@H](Cc2c[nH]c3ccccc23)NC(=O)[C@H](CCSC)NC(=O)[C@H](C(C)C)NC(=O)[C@H](Cc2c[nH]cn2)NC1=O [Compound 36, VEPNCDIHVMWVWVCFERLFREA] (Ac-VEPNCDIHVMWVWVCFERLFREA-NH2; disulfide 5-15 (inferred)) | 172
CC[C@H](C)[C@@H]1NC(=O)[C@H](CC(=O)O)NC(=O)[C@@H](NC(=O)[C@H](CC(N)=O)NC(=O)[C@@H]2CCCN2C(=O)[C@H](CCC(=O)O)NC(=O)[C@@H](NC(C)=O)C(C)C)CSSC[C@@H](C(=O)N[C@@H](Cc2ccccc2)C(=O)N[C@@H](CCC(=O)O)C(=O)N[C@@H](CCCNC(=N)N)C(=O)N[C@@H](CC(C)C)C(=O)N[C@@H](Cc2ccccc2)C(=O)N[C@@H](CCCCN)C(=O)N[C@@H](CCC(=O)O)C(=O)N[C@@H](C)C(N)=O)NC(=O)[C@H](C(C)C)NC(=O)[C@H](Cc2c[nH]c3ccccc23)NC(=O)[C@H](C(C)C)NC(=O)[C@H](Cc2c[nH]c3ccccc23)NC(=O)[C@H](CCSC)NC(=O)[C@H](C(C)C)NC(=O)[C@H](Cc2c[nH]cn2)NC1=O [Compound 37, VEPNCDIHVMWVWVCFERLFKEA] (Ac-VEPNCDIHVMWVWVCFERLFKEA-NH2; disulfide 5-15 (inferred)) | 59
CC[C@H](C)[C@@H]1NC(=O)[C@H](CC(=O)O)NC(=O)[C@@H](NC(=O)[C@H](CC(N)=O)NC(=O)[C@@H]2CCCN2C(=O)[C@H](CCC(=O)O)NC(=O)[C@@H](NC(C)=O)C(C)C)CSSC[C@@H](C(=O)N[C@@H](Cc2ccccc2)C(=O)N[C@@H](CCC(=O)O)C(=O)N[C@@H](CCCNC(=N)N)C(=O)N[C@@H](CC(C)C)C(=O)N[C@@H](CCSC)C(=O)N[C@@H](CCCCN)C(N)=O)NC(=O)[C@H](C(C)C)NC(=O)[C@H](Cc2c[nH]c3ccccc23)NC(=O)[C@H](C(C)C)NC(=O)[C@H](Cc2c[nH]c3ccccc23)NC(=O)[C@H](CCSC)NC(=O)[C@H](C(C)C)NC(=O)[C@H](Cc2c[nH]cn2)NC1=O [Compound 38, VEPNCDIHVMWVWVCFERLMK] (Ac-VEPNCDIHVMWVWVCFERLMK-NH2; disulfide 5-15 (inferred)) | 92.6
CC[C@H](C)[C@@H]1NC(=O)[C@H](CC(=O)O)NC(=O)[C@@H](NC(=O)[C@H](CC(N)=O)NC(=O)[C@@H]2CCCN2C(=O)[C@H](CCC(=O)O)NC(=O)[C@@H](NC(C)=O)C(C)C)CSSC[C@@H](C(=O)N[C@@H](Cc2ccccc2)C(=O)N[C@@H](CCC(=O)O)C(=O)N[C@@H](CCCNC(=N)N)C(=O)N[C@@H](CC(C)C)C(=O)N[C@@H](Cc2ccc(O)cc2)C(=O)N[C@@H](CCCNC(=N)N)C(=O)N[C@@H](CCC(=O)O)C(=O)N[C@@H](CC(C)C)C(N)=O)NC(=O)[C@H](CCC(=O)O)NC(=O)[C@H](Cc2c[nH]c3ccccc23)NC(=O)[C@H](C(C)C)NC(=O)[C@H](Cc2c[nH]c3ccccc23)NC(=O)[C@H](CCSC)NC(=O)[C@H](C(C)C)NC(=O)[C@H](Cc2c[nH]cn2)NC1=O [Compound 39, VEPNCDIHVMWVWECFERLYREL] (Ac-VEPNCDIHVMWVWECFERLYREL-NH2; disulfide 5-15 (inferred)) | 70
CC[C@H](C)[C@H](NC(=O)CNC(=O)[C@H](Cc1ccc(O)cc1)NC(=O)[C@H](CC(C)C)NC(=O)[C@H](CCCNC(=N)N)NC(=O)[C@H](CCC(=O)O)NC(=O)[C@H](Cc1ccccc1)NC(=O)[C@@H]1CSSC[C@H](NC(=O)[C@H](CC(N)=O)NC(=O)[C@@H]2CCCN2C(=O)[C@H](CCC(=O)O)NC(=O)[C@@H](NC(C)=O)C(C)C)C(=O)N[C@@H](CC(=O)O)C(=O)N[C@@H]([C@@H](C)CC)C(=O)N[C@@H](Cc2c[nH]cn2)C(=O)N[C@@H](C(C)C)C(=O)N[C@@H](CCSC)C(=O)N[C@@H](Cc2c[nH]c3ccccc23)C(=O)N[C@@H](C(C)C)C(=O)N[C@@H](Cc2c[nH]c3ccccc23)C(=O)N[C@@H](CCC(=O)O)C(=O)N1)C(=O)N[C@@H](Cc1ccccc1)C(N)=O [Compound 40, VEPNCDIHVMWVWECFERLYGIF] (Ac-VEPNCDIHVMWVWECFERLYGIF-NH2; disulfide 5-15 (inferred)) | 78.3
CC[C@H](C)[C@@H]1NC(=O)[C@H](CC(=O)O)NC(=O)[C@@H](NC(=O)[C@H](CC(N)=O)NC(=O)[C@@H]2CCCN2C(=O)[C@H](CCC(=O)O)NC(=O)[C@@H](NC(C)=O)C(C)C)CSSC[C@@H](C(=O)N[C@@H](Cc2ccccc2)C(=O)N[C@@H](CCC(=O)O)C(=O)N[C@@H](CCCNC(=N)N)C(=O)N[C@@H](CC(C)C)C(=O)N[C@@H](Cc2ccc(O)cc2)C(N)=O)NC(=O)[C@H](CCC(=O)O)NC(=O)[C@H](Cc2c[nH]c3ccccc23)NC(=O)[C@H](C(C)C)NC(=O)[C@H](Cc2c[nH]c3ccccc23)NC(=O)[C@H](CCSC)NC(=O)[C@H](C(C)C)NC(=O)[C@H](Cc2c[nH]cn2)NC1=O [Compound 41, VEPNCDIHVMWVWECFERLY] (Ac-VEPNCDIHVMWVWECFERLY-NH2; disulfide 5-15 (inferred)) | 69.9
CC[C@H](C)[C@@H]1NC(=O)[C@H](CC(=O)O)NC(=O)[C@@H](NC(=O)[C@H](CC(N)=O)NC(=O)[C@@H]2CCCN2C(=O)[C@H](CCC(=O)O)NC(=O)[C@@H](NC(C)=O)C(C)C)CSSC[C@@H](C(=O)N[C@@H](Cc2ccccc2)C(=O)N[C@@H](CCC(=O)O)C(=O)N[C@@H](CCCNC(=N)N)C(=O)N[C@@H](CC(C)C)C(=O)N[C@@H](Cc2ccc(O)cc2)C(=O)NCC(=O)N[C@@H](Cc2c[nH]c3ccccc23)C(=O)NCC(N)=O)NC(=O)[C@H](CCC(=O)O)NC(=O)[C@H](Cc2c[nH]c3ccccc23)NC(=O)[C@H](C(C)C)NC(=O)[C@H](Cc2c[nH]c3ccccc23)NC(=O)[C@H](CCSC)NC(=O)[C@H](C(C)C)NC(=O)[C@H](Cc2c[nH]cn2)NC1=O [Compound 42, VEPNCDIHVMWVWECFERLYGWG] (Ac-VEPNCDIHVMWVWECFERLYGWG-NH2; disulfide 5-15 (inferred)) | 68.2

Source: patent publication US8937048B2, “Anti-angiogenic compounds” (Covx Technologies Ireland, Limited, priority 2008, dated 2015)
